Source: PubChem BioAssay AID1645863 (Buhrlage Lab, Dana-Farber Cancer Institute and Novartis …, 2021)
pIC50: −log10 of the molar value. Calls of active or inactive are those of the source. The rule behind the calls is not given here.

Target: Ubiquitin carboxyl-terminal hydrolase 10 (Homo sapiens) (UniProt Q14694)
Test: ubiquitin-specific protease 10 DUB inhibitors, concentration-effect, biochemical, verification of primary screen actives (AID 1645863);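 note: potency values describe inhibition of USP10 cleavage of a fluorogenic ubiquitin substrate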
Conditions: USP10 deubiquitinase enzymatic assay

Ubiquitin carboxyl-terminal hydrolase 10 (Homo sapiens), sequence (Q14694 whole entry, looked up): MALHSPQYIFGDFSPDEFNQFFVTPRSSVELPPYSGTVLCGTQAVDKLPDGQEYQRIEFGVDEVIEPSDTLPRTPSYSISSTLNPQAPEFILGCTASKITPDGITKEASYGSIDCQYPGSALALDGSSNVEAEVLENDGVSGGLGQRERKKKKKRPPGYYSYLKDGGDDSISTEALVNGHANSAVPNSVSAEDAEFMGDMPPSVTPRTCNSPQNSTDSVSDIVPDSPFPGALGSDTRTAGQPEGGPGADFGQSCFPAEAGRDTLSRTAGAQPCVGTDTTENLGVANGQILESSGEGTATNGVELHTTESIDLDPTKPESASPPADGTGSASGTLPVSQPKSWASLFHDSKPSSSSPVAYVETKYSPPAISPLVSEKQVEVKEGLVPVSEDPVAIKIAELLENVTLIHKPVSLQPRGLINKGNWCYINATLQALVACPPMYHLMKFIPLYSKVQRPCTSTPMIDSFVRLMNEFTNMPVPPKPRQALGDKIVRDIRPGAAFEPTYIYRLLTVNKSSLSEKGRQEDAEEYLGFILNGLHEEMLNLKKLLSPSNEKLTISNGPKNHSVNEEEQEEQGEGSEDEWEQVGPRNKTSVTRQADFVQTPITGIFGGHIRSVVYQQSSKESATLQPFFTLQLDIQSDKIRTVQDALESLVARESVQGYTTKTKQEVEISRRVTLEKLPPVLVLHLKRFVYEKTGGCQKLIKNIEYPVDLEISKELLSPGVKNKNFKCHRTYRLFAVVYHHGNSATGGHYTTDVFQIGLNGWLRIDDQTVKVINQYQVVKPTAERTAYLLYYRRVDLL

Row | IC50 | pIC50 | Structure (SMILES)
1 | > 40 µM (inactive) |  | CCCCOc1ccc(-c2cc3n(c(=N)c2C#N)CCc2cc4c(cc2-3)OCCCO4)cc1OC
2 | > 40 µM (inactive) |  | COc1cccc(-c2cc(C(=O)Nc3cc(C)n(Cc4ccc(Cl)cc4)n3)no2)c1
3 | > 40 µM (inactive) |  | O=C(c1cc(S(=O)(=O)Nc2ccc(Cl)cc2)ccc1Cl)N1CCCc2ccccc21
4 | > 40 µM (inactive) |  | COc1ccc(C(=O)Nc2nc(-c3ccc4c(c3)NC(=O)CO4)c(C)s2)cc1OC
5 | > 40 µM (inactive) |  | Cc1ccc(-c2nnc3ccc(SCC(=O)N4CCCc5ccccc54)nn23)cc1
6 | > 40 µM (inactive) |  | COc1ccc(-c2cc3nc([C@H](C)NC(=O)CC4CCCC4)nn3cn2)cc1
7 |  | 4.98 | C=C/C(C)=C/[C@@]1(C)SC(=O)C(C)=C1O
8 | > 40 µM (inactive) |  | Cc1cccc(C)c1NC(=O)COc1ccccc1-c1nnc(-c2ccccc2)o1
9 | > 40 µM (inactive) |  | Cc1cc(=O)[nH]c(NC2CCN(S(=O)(=O)c3ccccc3C(F)(F)F)CC2)n1
10 | > 40 µM (inactive) |  | COc1cccc(C(=O)Nc2nc(-c3nnn(-c4ccc(C)c(F)c4)c3C)ns2)c1
11 | > 40 µM (inactive) |  | COc1ccc(N2CC(c3nnc(NC(=O)CCc4ccccc4)s3)CC2=O)cc1 (stereo unspecified)
12 | > 40 µM (inactive) |  | NS(=O)(=O)c1ccc(CNS(=O)(=O)/C=C/c2ccccc2)cc1
13 | > 40 µM (inactive) |  | Cc1ccccc1-c1noc(-c2cn(Cc3ccc(NC(=O)Cc4ccccc4)cc3)cn2)n1
14 | > 40 µM (inactive) |  | COc1cc(C2CC(=O)c3c([nH]c(C(=O)OCCOc4ccccc4)c3C)C2)cc(OC)c1OC (stereo unspecified)
15 |  | 4.86 | COc1cc(OC)cc(N2C(=O)N(CC(=O)c3ccc(Br)cc3)c3ccccc3S2(=O)=O)c1
16 | > 40 µM (inactive) |  | CC(CCc1ccccc1)NC(=O)Cn1c(=O)c2cccn2c2ccccc21 (stereo unspecified)
17 |  | 4.52 | CCOC(=O)c1cc2c(ccn2-c2ccc(F)cc2)n1CC(=O)Nc1ccc2c(c1)OCCO2
18 | > 40 µM (inactive) |  | COc1ccc(CCN2COc3c(cc(Cl)c4cccnc34)C2)cc1OC
19 | > 40 µM (inactive) |  | COc1ccc(Cn2c(=O)[nH]c3cc(C(=O)NCCCN4CCN(c5cccc(Cl)c5)CC4)ccc3c2=O)cc1
20 | > 40 µM (inactive) |  | O=C(NCc1ccco1)c1ccc(Cn2c(SCc3ccccc3)nc3ccncc32)cc1
21 | > 40 µM (inactive) |  | Cc1cc(C)c(NC(=O)Cc2sc(Nc3ccc(C)c(C)c3)nc2O)c(C)c1
22 | > 40 µM (inactive) |  | Cc1cccc(-c2nnn3c2nc(NCC2CCCO2)c2ccccc23)c1 (stereo unspecified)
23 | > 40 µM (inactive) |  | Cc1ccc2c(c1)c(=O)c(C(=O)c1ccccc1)cn2CC(=O)Nc1ccc2c(c1)OCCO2

Row | IC50 | pIC50 | Structure (SMILES)
24 | > 40 µM (inactive) |  | Cc1ccc(C(=O)c2cn(CC(=O)Nc3ccccc3)c3ccc(C)cc3c2=O)cc1
25 | > 40 µM (inactive) |  | O=C(CCCc1nnc2c(=O)n(-c3cccc(F)c3)ccn12)Nc1ccccc1
26 |  | 4.80 | Cc1c(-c2nsc(NC(=O)c3ccc(Cl)cc3)n2)nnn1-c1ccccc1F
27 | > 40 µM (inactive) |  | COc1ccc(-c2nc(NCCCN3CCOCC3)c3ccccc3n2)cc1
28 |  | 4.85 | COc1ccc(Cl)cc1NC(=O)c1nc(-c2cn(-c3ccccc3)nn2)no1
29 |  | 4.66 | CCCC(O)CCCCCCCc1cc(O)cc(O)c1C(=O)OC(CCC)CCCCCCCc1cc(O)cc(O)c1 (stereo unspecified)
30 |  | 6.23 | CCCCCCCCC/C=C/C(=O)CCc1c(O)c(C=O)c2c(c1O)C(=O)OC2O (stereo unspecified)
31 |  | 4.89 | Cc1ccc2c(c1)N(C)C(=O)c1cc(NC(=O)c3ccc(F)cc3)ccc1O2
32 |  | 4.53 | CCc1cccc(C)c1NC(=O)Cn1nc2ccc(C(=O)NCc3ccccc3)cn2c1=O
33 |  | 4.81 | Cc1ccc(C)c(NC(=O)Cn2cc(C(=O)C3CC3)c3ccccc32)c1
34 | > 40 µM (inactive) |  | CC(C)c1nnc(NC(=O)C2CC(=O)N(CCc3ccc(F)cc3)C2)s1 (stereo unspecified)
35 | > 40 µM (inactive) |  | CCc1ccc([C@@H]2c3c(C)nn(C)c3NC(=O)[C@H]2NC(=O)c2ccc(OC)c(OC)c2)cc1
36 | > 40 µM (inactive) |  | Cc1c(Cl)cccc1NC(=O)Cn1cc(C(=O)C2CC2)c2ccccc21
37 | > 40 µM (inactive) |  | O=C(NCCc1cccnc1)c1ccn(-c2ccc3ccccn23)n1
38 |  | 4.82 | COc1ccc(/C=C/C(=O)Nc2cccc(S(=O)(=O)Nc3ccccc3Cl)c2)c(OC)c1
39 |  | 4.60 | CN1C(=O)COc2cc(-c3noc(C(=O)NCc4ccc(F)cc4)n3)ccc21
40 | > 40 µM (inactive) |  | Cc1nnc(-c2cc(S(=O)(=O)N3CCN(c4ccc(F)cc4)CC3)c[nH]2)o1
41 | > 40 µM (inactive) |  | Cc1ccc(NCc2cc3c(-c4cccc(F)c4)nn(-c4ccccc4)c3[nH]c2=O)cc1C
42 | > 40 µM (inactive) |  | COCCCNC(=O)c1ccc(Cn2c(=O)c3ccccc3n(CC(=O)Nc3ccc(OC)cc3)c2=O)cc1
43 | > 40 µM (inactive) |  | Cc1cc(C(=O)N2CCOCC2)c(C)n1-c1ccc(O)cc1
44 | > 40 µM (inactive) |  | CC(=O)Nc1ccc(Cc2nc(-c3ccc4c(c3)nc(C)c(=O)n4C3CCCC3)no2)cc1
45 | > 40 µM (inactive) |  | COc1ccc(NC(=O)Cn2c(=O)n(CCCCC(=O)NCc3ccco3)c(=O)c3ccccc32)cc1Cl
46 |  | 5.01 | COc1ccc(C(=O)COC(=O)c2ccccc2NS(=O)(=O)c2ccc(O)c([N+](=O)[O-])c2)cc1

Row | IC50 | pIC50 | Structure (SMILES)
47 | > 40 µM (inactive) |  | COC(=O)c1ccccc1NC(=O)C1CCCN(c2nnc(-n3cccc3)s2)C1 (stereo unspecified)
48 |  | 4.78 | O=C(Cn1c(=O)c2sccc2n(CC(=O)OCc2ccccc2)c1=O)NCc1ccccc1Cl
49 |  | 4.60 | COC(=O)c1ccc(N2CCN(C(C)=O)CC2)c(NC(=O)COc2ccc([N+](=O)[O-])cc2)c1
50 | > 40 µM (inactive) |  | COc1ccc(C(=O)NC(Cc2ccccc2)c2nc3ccccc3[nH]2)c(OC)c1 (stereo unspecified)
51 |  | 4.90 | Cc1nnc(NC(=O)C2CCN(c3ccc(S(N)(=O)=O)cc3[N+](=O)[O-])CC2)o1
52 | > 40 µM (inactive) |  | Cc1ccc2cc(-c3noc(CCC(=O)NC4CCCC4)n3)c(=O)[nH]c2c1
53 | > 40 µM (inactive) |  | CSc1cccc(NC(=O)c2cc(-c3cccnc3)n[nH]2)c1
54 | > 40 µM (inactive) |  | Cc1cccc(NC(=O)c2noc3c2CCc2sccc2-3)n1
55 |  | 4.43 | COc1cc2c(=O)n(CC3CCCO3)c(=O)n(CC(=O)c3ccc4c(c3)OCO4)c2cc1OC (stereo unspecified)
56 |  | 4.40 | O=C(/C=C/c1ccc(Br)cc1)Nc1cnc2ccccc2c1
57 |  | 4.41 | COc1cc(NS(=O)(=O)c2ccc(NC(=O)COc3ccc(C)cc3Br)cc2)nc(OC)n1
58 | > 40 µM (inactive) |  | CN(C(=O)C1(c2ccccc2)CC1)c1nc2c(s1)CCc1occc1-2
59 | > 40 µM (inactive) |  | O=C(c1ccc2c(c1)OCO2)[C@@H]1[C@H](C(=O)OC(c2ccccc2)c2ccccc2)N2c3ccccc3C=CC2[C@@]12C(=O)Nc1ccccc12 (stereo partly specified)
60 | > 40 µM (inactive) |  | CCOc1ccccc1NC(=O)Cn1c(=O)n(CCCC(=O)NCc2ccc(C)cc2)c(=O)c2sccc21
61 | > 40 µM (inactive) |  | CCOC(=O)c1cc2c(ccn2C)n1CC(=O)NC1CC1
62 |  | 4.41 | CCOc1ccc(-n2ccnc(SCC(=O)Nc3ccccc3F)c2=O)cc1
63 | > 40 µM (inactive) |  | O=C(Oc1ccc2cc(Br)ccc2c1)c1ccncc1
64 | > 40 µM (inactive) |  | O=[N+]([O-])c1ccc2c(c1)nc1n2CCN(Cc2ccco2)C1
65 |  | 5.40 | CCCCCCCc1cc(OC(=O)c2c(CCCCCCC)cc(O)cc2O[C@@H]2O[C@H](CO)[C@@H](O)[C@H](O)[C@H]2O)cc(O)c1C(=O)O
66 | > 40 µM (inactive) |  | O=C(Nc1ccccc1)Nc1ccc(F)c(-c2nnc(-c3ccccc3)o2)c1
67 | > 40 µM (inactive) |  | COc1ccc(Cl)cc1NC(=O)Cn1c(=O)n(CCC(=O)NC2CCCC2)c(=O)c2ccccc21
68 |  | 5.02 | COc1cccc2cc(C(=O)Nc3nc(-c4ccncc4)cs3)oc12
69 | > 40 µM (inactive) |  | Cn1c(=O)[nH]c(=O)c2c1nc(N1CCc3ccccc3C1)n2CCSc1nnnn1-c1ccccc1

Row | IC50 | pIC50 | Structure (SMILES)
70 |  | 4.53 | O=S(=O)(Nc1ccc(Oc2ncnc3cc(Cl)ccc23)nc1)c1ccc(S(=O)(=O)c2ccccc2)s1
71 | > 40 µM (inactive) |  | COc1ccc(/C=C/C(=O)Nc2nc3n(n2)C(c2ccccc2)CC(=O)N3)cc1 (stereo unspecified)
72 | > 40 µM (inactive) |  | COc1cc(NC(=O)Cn2c(=O)n(-c3ccc(CC(=O)NC4CCCC4)cc3)c(=O)c3ccccc32)cc(OC)c1
73 | > 40 µM (inactive) |  | O=C(Cn1cccc(-c2nc(-c3ccccc3)no2)c1=O)Nc1ccccc1F
74 |  | 4.47 | COc1cccc(NC(=O)C(Sc2cccc(NC(=O)c3ccccc3F)c2)c2ccccc2)c1 (stereo unspecified)
75 | > 40 µM (inactive) |  | CC1CCc2c(sc(NC(=O)c3cccc(S(C)(=O)=O)c3)c2C(N)=O)C1 (stereo unspecified)
76 | > 40 µM (inactive) |  | COc1c2nc3ccccc3oc-2cc(=O)c1OC
77 |  | 4.72 | O=C(Nc1cccc(Cl)c1)c1ncn2c1CNS(=O)(=O)c1ccccc1-2
78 |  | 5.05 | COc1ccc(C2/C(=C(\O)c3ccccc3)C(=O)C(=O)N2c2nc3ccc(F)cc3s2)cc1 (stereo unspecified)
79 | > 40 µM (inactive) |  | CCCCNC(=O)C1Sc2nnc(-c3ccccc3)n2NC1c1ccccc1 (stereo unspecified)
80 | > 40 µM (inactive) |  | Cc1ccc(C(=O)c2cn(CC(=O)Nc3ccc(F)c(F)c3)c3ccc(F)cc3c2=O)cc1
81 |  | 4.73 | COc1ccc(OC)c(-c2cn3ccn(-c4ccc(F)c(Cl)c4)c(=O)c3n2)c1
82 |  | 4.62 | Cc1ccc(NC(=O)Cn2cc(C(=O)c3ccccc3)c(=O)c3cc(C)ccc32)cc1
83 |  | 5.24 | NC(=O)c1ccccc1NC(=O)COc1ccc2c(c1)oc(=O)c1ccccc12
84 | > 40 µM (inactive) |  | COc1ccc(S(=O)(=O)N2CCc3ccccc32)cc1C(=O)Nc1ccc2c(c1)NC(=O)C(C)O2 (stereo unspecified)
85 |  | 4.43 | COc1ccc(OC)c(NC(=O)c2sc(-c3ccccc3)nc2C)c1
86 |  | 4.73 | C[C@@H]1CO[C@@H]2C3=C(C(=O)C=CC3=O)[C@H]3OC(=O)[C@@H]4CCC5[C@@H]1CCC52C34 (stereo partly specified)
87 | > 40 µM (inactive) |  | Cc1c(C(=O)Nc2ccc(Oc3ccccc3)cc2)nnn1-c1cccc(Cl)c1
88 | > 40 µM (inactive) |  | COc1ccccc1CN1CCC(c2cc(=O)[nH]c(-c3cccnc3)n2)CC1
89 |  | 4.79 | COC(=O)c1ccc2c(=O)n(CCCCCC(=O)NCc3cccc(Cl)c3)c(=O)[nH]c2c1
90 |  | 4.45 | CCC(=O)N1c2ccccc2NC2=C(C(=O)CC(c3ccccc3OCc3ccccc3)C2)C1c1ccccc1 (stereo unspecified)
91 | > 40 µM (inactive) |  | O=C(Nc1ccccc1C(F)(F)F)c1cccc(S(=O)(=O)Nc2cc(C(F)(F)F)ccc2Cl)c1
